# From ChEMBL document CHEMBL1201862, “PubChem BioAssay data set” (2004)
# Active and inactive are the calls of the source.
# Key:
# [1] = tested on: BJ; test: cytotoxicity toward BJ-TERT-LT-ST fibroblasts, dose response, cell-based, RAS-independent, luminescence (AID 1935); type: functional; settings: Homo sapiens;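 further: BJ fibroblasts immortalized with TERT plus LT and ST oncogenes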
# [2] = biological target: T1, Serine/threonine-protein phosphatase (Homo sapiens, UniProt Q9BPW0); test: Counterscreen for inhibitors of PP1: fluorescence-based biochemical high throughput dose response assay to identify inhibitors of Protein Phosphatase 5 (PP5). [Related pubchem assays: 2034 (Summary (PP5 inhibitors)), 1987 (PP5 inhibitors in singlate), 2235 (PP1 inhibitors in singlate)]
# T1 sequence (Q9BPW0 whole entry): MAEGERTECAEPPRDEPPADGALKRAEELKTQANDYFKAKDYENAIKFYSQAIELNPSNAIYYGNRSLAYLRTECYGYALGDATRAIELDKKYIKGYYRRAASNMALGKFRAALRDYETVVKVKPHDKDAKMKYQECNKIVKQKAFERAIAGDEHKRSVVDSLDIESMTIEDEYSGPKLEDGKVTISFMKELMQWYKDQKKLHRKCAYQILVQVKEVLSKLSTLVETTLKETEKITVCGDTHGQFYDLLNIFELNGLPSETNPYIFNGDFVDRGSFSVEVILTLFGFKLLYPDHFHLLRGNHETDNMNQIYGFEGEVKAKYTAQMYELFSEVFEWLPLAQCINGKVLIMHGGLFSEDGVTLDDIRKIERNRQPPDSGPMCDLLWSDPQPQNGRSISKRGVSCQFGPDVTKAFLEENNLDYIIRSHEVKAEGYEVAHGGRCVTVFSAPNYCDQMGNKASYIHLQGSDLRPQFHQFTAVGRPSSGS
# [3] = tested on: Streptococcus sp. 'group A'; test: growth inhibition of control SK(-) GAS strain, dose response, counter-screen for streptokinase expression inhibitor project, luminescence, kanamycin, BacTiterGlo, confirmation (AID 1900); type: functional, organism-based
# [4] = AlphaScreen signal interference compounds, dose response, artefact control for ARNT-TACC3 interaction inhibitor project, biochemical, luminescence, cherry-pick (AID 651705); type: functional;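 further: AlphaScreen bead proximity signal that flags compounds interfering with the detection technology; potency reflects signal decrease which marks the compound as an assay artifact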
# [5] = Luminescent dose response cell-based high throughput screening assay for inhibitors of the Janus kinase 2 mutant JAK2V617F. [Related pubchem assays: 1446 (Primary screen.), 1521 (Confirmation assay.), 1486 (Counter screen.)]; type: functional
# [6] = cytotoxicity toward DRD oncogenic fibroblasts, dose response, cell-based, non-viral oncogenic, luminescence (AID 1934); type: functional; settings: Homo sapiens
# [7] = biological target: Serine/threonine-protein phosphatase PP1-alpha catalytic subunit (Homo sapiens, UniProt P62136); test: PP1 phosphatase inhibitors, dose response, biochemical, fluorescence (AID 2403);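 further: phosphatase turnover of OMFP into fluorescent 3-O-methylfluorescein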
# [8] = tested on: Streptococcus; test: Group A Streptococcus viability loss, dose response, counter-screen for streptokinase expression inhibitor project, luminescence, BacTiterGlo (AID 1915); type: functional, organism-based;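 further: potency for reduction of bacterial viability or growth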
# [9] = tested on: BJ; test: cells; type: functional, cell-based; settings: Homo sapiens
# [10] = insulin promoter down-regulators in MIN6 cells, imaging, high-content screening, mouse beta cells (AID 1628); type: functional
# [11] = cytotoxicity in MIN6 insulinoma cells, dose response, cytotoxicity control, cell-based, mouse insulinoma (AID 2122); type: functional;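 further: confirmatory high-throughput counterscreen run to flag cytotoxic compounds; mouse MIN-6 beta cells carrying an insulin promoter eGFP reporter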
# [12] = tested on: INS1; test: beta cell apoptosis inhibitors, cytokine rescue, dose response, luminescence, retest (AID 449756); type: functional, cell-based; settings: Rattus norvegicus;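 further: cell death triggered by IL-1 beta plus TNF-alpha plus IFN-gamma mixture; protective hits raise ATP signal compared with cytokine alone wells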
# [13] = tested on: HEK293; test: inhibitors of LMP1-driven NF-kB reporter, dose response, cell-based, HEK293, luciferase, cherry-pick (AID 588343); type: functional; settings: Homo sapiens
# [14] = tested on: BJ; test: cytotoxicity toward BJ-TERT fibroblasts, dose response, cell-based, RAS-independent, luminescence (AID 1933); type: functional; settings: Homo sapiens
# [15] = biological target: T2, Rac GTPase-activating protein 1 (Homo sapiens, UniProt Q9H0H5); test: MgcRacGAP GTPase-activating activity inhibitors, confirmation, biochemical, ADP Hunter fluorescence, primary and confirmatory (AID 624330); type: functional
# T2 sequence (Q9H0H5 whole entry): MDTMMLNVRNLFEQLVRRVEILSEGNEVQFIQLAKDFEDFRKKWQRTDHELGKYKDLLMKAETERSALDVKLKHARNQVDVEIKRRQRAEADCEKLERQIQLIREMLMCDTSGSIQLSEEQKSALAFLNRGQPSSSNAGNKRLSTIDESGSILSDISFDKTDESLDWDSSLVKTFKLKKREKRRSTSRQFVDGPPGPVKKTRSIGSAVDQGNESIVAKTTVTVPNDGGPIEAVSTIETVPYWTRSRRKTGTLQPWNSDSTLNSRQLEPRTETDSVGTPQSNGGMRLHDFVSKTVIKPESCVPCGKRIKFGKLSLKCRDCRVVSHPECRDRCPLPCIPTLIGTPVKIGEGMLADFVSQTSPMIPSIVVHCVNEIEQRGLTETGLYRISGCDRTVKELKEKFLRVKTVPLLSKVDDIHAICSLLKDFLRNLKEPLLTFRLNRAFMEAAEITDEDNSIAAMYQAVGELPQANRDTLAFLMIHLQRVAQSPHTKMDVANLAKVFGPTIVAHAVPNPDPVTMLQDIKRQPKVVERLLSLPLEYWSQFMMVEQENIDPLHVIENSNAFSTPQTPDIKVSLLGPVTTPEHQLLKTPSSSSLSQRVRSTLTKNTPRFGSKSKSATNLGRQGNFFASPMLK
# [16] = biological target: Neuropeptides B/W receptor type 1 (Homo sapiens, UniProt P48145); test: Fluorescence-based dose response cell-based high throughput screening assay to identify antagonists of the G-protein coupled receptor 7 (GPR7). [Related pubchem assays: 1952 (Screening assay (GPR7 antagonists).), 1880 (Summary AID.)]; type: functional
# [17] = biological target: Melanin-concentrating hormone receptor 1 (Homo sapiens, UniProt Q99705); test: Fluorescence-based counterscreen for antagonists of the G-protein coupled receptor 7 (GPR7): cell-based high throughput dose response assay to identify antagonists of the melanin-concentrating hormone receptor 1 (MCHR1).; type: functional
# [18] = biological target: T3, Alkaline phosphatase, tissue-nonspecific isozyme (Homo sapiens, UniProt P05186)
# T3 sequence (P05186 whole entry): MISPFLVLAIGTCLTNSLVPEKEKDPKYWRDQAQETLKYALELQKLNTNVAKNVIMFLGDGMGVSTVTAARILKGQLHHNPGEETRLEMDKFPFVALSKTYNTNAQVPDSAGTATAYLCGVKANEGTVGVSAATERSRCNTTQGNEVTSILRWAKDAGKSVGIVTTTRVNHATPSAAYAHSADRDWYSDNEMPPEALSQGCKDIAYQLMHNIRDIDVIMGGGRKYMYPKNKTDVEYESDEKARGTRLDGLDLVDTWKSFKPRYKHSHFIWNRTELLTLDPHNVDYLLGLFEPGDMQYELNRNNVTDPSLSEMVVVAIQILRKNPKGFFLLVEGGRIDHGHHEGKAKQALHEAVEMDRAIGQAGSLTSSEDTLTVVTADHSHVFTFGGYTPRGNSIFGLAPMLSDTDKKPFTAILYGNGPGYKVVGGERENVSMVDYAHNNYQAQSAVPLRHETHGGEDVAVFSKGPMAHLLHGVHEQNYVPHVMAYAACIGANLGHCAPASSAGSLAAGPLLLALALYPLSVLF
# [19] = A cytotoxicity screen of small molecule inhibitors of the PhoP region in Salmonella typhi identified in the primary screen. [Related pubchem assays: 1850, 1864, 1985 ]; type: functional
# [20] = biological target: Cytochrome P450 2D6 (Homo sapiens, UniProt P10635); test: qHTS Assay for Inhibitors and Substrates of Cytochrome P450 2D6. [Related pubchem assays: 410 ]; type: ADME; settings: read-out: Potency
# [21] = biological target: T4, Dual specificity protein phosphatase 6 (Rattus norvegicus, UniProt Q64346)
# T4 sequence (Q64346 whole entry): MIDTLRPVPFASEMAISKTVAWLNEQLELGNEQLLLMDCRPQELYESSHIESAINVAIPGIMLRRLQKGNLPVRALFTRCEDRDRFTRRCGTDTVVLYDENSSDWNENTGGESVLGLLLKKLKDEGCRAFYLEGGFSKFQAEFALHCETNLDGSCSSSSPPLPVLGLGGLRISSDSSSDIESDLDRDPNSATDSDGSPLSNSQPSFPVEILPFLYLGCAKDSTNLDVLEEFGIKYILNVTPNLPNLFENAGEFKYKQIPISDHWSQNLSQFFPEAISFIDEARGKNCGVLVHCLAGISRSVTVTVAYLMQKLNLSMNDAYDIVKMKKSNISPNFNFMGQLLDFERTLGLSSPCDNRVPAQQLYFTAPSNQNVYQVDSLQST
# [22] = biological target: T4, Dual specificity protein phosphatase 6; type: functional
# [23] = biological target: Glyceraldehyde-3-phosphate dehydrogenase (Homo sapiens, UniProt P04406)
# [24] = biological target: T5, Tyrosine-protein phosphatase non-receptor type 7 (Homo sapiens, UniProt P35236); type: functional
# T5 sequence (P35236 whole entry): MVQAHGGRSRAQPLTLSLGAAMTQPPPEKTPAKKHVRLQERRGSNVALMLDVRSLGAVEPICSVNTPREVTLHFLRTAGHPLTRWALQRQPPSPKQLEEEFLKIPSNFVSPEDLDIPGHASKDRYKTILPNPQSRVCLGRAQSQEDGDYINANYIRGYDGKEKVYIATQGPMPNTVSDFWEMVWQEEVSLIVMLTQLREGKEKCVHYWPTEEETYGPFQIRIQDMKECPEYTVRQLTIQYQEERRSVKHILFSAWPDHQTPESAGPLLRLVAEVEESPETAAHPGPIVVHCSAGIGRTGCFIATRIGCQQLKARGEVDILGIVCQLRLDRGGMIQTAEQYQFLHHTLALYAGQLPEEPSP
# [25] = biological target: G2/mitotic-specific cyclin-B1 (Homo sapiens, UniProt P14635); test: Counterscreen assay for inhibitors of Wee1 degradation: dose response cell-based assay to identify inhibitors of cyclin B degradation. [Related pubchem assays: 1410, 1321 ]; type: functional
# [26] = biological target: Wee1-like protein kinase (Homo sapiens, UniProt P30291); test: Dose Response Cell-based Assay for Inhibitors of Wee1 Degradation. [Related pubchem assays: 1410, 1321 ]; type: functional
# [27] = biological target: T6, Streptokinase A (Streptococcus pyogenes serotype M1, UniProt P10520); test: S. pyogenes streptokinase expression inhibitors, potency, dose response, plasminogen activation absorbance, OD405 (AID 1914); type: functional, Streptococcus pyogenes M1 GAS;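 further: secreted streptokinase activity via plasminogen activation per viability signal from cell pellet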
# T6 sequence (P10520 whole entry): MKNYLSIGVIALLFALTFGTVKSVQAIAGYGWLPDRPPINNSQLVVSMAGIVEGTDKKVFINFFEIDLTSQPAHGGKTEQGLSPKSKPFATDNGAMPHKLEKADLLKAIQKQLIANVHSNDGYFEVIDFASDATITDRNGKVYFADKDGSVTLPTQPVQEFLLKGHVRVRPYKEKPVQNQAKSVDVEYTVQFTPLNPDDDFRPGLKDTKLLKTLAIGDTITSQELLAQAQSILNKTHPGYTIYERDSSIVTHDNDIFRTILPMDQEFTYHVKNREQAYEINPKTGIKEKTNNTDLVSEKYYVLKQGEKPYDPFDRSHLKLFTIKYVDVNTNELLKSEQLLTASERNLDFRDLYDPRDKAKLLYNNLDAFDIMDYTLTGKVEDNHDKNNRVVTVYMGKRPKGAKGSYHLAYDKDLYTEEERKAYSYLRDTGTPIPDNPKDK
# [28] = biological target: Peroxisome proliferator-activated receptor gamma/Nuclear receptor coactivator 1 (Homo sapiens, UniProt P37231); test: TR-FRET dose response biochemical High Throughput Screening assay for agonists of the steroid receptor coactivator 1 (SRC-1) recruitment by the peroxisome proliferator-activated receptor gamma (PPAR gamma): non-selective agonists. [Related pubchem assays (depositor defined):AID1300, AID1808, AID504735, AID631]; type: protein assay
# [29] = biological target: Peroxisome proliferator-activated receptor gamma/Nuclear receptor coactivator 3 (Homo sapiens, UniProt P37231); test: TR-FRET dose response biochemical High Throughput Screening assay for agonists of the steroid receptor coactivator 3 (SRC-3) recruitment by the peroxisome proliferator-activated receptor gamma (PPAR gamma): non-selective agonists. [Related pubchem assays: 1301 (Confirmation screen.), 1048 (Primary screen.)]; type: functional
# [30] = biological target: Peroxisome proliferator-activated receptor gamma/Nuclear receptor corepressor 2 (Homo sapiens, UniProt P37231+Q9Y618); type: functional
# [31] = biological target: Photoreceptor-specific nuclear receptor (Homo sapiens, UniProt Q9Y5X4); type: functional;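 further: potency for compounds that break the NR2E3 corepressor complex and count as activators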
# [32] = biological target: Peroxisome proliferator-activated receptor gamma/Nuclear receptor coactivator 2 (Homo sapiens, UniProt P37231); test: TR-FRET dose response biochemical High Throughput Screening assay for agonists of the steroid receptor coactivator 2 (SRC-2) recruitment by the peroxisome proliferator-activated receptor gamma (PPAR gamma): non-selective agonists. [Related pubchem assays: 1297, 1032 ]; type: functional
# Sequence of Peroxisome proliferator-activated receptor gamma/Nuclear receptor coactivator 2 (P37231 whole entry): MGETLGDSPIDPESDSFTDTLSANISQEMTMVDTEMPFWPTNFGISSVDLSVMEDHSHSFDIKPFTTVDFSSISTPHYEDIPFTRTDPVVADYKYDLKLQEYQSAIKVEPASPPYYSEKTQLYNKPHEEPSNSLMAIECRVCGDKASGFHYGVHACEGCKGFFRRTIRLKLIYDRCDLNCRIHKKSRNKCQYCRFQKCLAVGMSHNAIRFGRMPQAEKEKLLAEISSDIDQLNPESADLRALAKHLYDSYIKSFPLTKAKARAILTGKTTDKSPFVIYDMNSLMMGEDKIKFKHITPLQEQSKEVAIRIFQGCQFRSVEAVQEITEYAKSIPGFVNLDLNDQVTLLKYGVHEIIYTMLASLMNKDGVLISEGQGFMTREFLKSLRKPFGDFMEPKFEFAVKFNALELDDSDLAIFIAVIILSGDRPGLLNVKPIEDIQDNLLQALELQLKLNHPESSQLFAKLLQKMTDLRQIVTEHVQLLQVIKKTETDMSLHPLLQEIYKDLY
# Sequence of Peroxisome proliferator-activated receptor gamma/Nuclear receptor coactivator 2 (Q15596 whole entry, further chain): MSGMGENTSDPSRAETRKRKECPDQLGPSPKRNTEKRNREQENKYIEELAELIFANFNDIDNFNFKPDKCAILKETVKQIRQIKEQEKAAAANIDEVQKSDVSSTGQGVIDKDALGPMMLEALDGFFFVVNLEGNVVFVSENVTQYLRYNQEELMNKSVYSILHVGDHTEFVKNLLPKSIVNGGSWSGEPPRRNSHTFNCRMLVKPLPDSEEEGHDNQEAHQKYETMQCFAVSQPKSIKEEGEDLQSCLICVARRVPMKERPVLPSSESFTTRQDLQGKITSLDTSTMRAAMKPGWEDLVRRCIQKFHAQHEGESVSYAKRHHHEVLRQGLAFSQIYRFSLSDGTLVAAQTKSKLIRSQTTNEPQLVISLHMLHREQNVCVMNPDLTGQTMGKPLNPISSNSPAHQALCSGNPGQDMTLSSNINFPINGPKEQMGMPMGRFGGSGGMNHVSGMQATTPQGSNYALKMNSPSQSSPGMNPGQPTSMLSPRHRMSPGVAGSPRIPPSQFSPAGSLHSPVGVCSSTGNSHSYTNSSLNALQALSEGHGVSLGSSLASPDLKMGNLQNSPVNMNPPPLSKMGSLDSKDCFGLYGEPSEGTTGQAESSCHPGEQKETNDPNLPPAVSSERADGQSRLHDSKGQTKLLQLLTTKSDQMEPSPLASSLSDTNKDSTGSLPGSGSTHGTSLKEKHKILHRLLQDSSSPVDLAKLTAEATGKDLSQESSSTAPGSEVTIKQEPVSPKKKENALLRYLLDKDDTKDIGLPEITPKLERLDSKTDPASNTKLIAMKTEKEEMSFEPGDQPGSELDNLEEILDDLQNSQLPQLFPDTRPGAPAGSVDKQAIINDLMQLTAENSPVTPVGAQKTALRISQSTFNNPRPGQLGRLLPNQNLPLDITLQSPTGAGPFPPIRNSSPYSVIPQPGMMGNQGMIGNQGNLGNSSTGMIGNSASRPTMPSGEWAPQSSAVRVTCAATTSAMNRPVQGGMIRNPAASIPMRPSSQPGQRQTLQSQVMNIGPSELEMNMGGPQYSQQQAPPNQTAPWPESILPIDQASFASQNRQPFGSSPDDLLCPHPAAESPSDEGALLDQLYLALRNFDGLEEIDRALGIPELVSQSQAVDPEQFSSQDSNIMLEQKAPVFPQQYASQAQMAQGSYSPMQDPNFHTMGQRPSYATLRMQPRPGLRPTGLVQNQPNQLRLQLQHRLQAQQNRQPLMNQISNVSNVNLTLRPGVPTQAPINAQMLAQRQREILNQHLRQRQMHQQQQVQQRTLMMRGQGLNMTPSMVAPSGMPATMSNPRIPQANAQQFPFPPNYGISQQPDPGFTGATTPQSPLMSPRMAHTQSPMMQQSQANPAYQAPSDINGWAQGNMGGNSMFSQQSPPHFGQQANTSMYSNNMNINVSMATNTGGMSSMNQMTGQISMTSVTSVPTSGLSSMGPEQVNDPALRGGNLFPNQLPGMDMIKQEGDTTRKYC
# Sequence of Glyceraldehyde-3-phosphate dehydrogenase (P04406 whole entry): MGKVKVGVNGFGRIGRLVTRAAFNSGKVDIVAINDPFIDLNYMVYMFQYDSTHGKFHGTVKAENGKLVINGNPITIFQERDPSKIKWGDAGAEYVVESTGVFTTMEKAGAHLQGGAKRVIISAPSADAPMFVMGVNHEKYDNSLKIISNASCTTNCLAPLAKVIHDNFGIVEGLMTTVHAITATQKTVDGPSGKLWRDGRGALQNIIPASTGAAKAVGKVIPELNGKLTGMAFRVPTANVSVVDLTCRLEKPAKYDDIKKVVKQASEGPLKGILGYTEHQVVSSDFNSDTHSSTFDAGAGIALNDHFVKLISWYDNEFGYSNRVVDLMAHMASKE
# Sequence of Melanin-concentrating hormone receptor 1 (Q99705 whole entry): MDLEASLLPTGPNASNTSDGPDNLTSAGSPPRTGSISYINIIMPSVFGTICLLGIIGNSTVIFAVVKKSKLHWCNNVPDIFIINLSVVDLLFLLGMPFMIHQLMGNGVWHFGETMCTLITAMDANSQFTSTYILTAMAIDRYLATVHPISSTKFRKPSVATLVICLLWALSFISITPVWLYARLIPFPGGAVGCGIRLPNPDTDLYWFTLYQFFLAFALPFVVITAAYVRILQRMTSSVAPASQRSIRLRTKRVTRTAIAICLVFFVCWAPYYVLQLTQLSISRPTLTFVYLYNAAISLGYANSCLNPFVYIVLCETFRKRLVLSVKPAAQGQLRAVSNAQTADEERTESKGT
# Sequence of Peroxisome proliferator-activated receptor gamma/Nuclear receptor coactivator 3 (P37231 whole entry): as the sequence (P37231 whole entry) above
# Sequence of Peroxisome proliferator-activated receptor gamma/Nuclear receptor coactivator 3 (Q9Y6Q9 whole entry, further chain): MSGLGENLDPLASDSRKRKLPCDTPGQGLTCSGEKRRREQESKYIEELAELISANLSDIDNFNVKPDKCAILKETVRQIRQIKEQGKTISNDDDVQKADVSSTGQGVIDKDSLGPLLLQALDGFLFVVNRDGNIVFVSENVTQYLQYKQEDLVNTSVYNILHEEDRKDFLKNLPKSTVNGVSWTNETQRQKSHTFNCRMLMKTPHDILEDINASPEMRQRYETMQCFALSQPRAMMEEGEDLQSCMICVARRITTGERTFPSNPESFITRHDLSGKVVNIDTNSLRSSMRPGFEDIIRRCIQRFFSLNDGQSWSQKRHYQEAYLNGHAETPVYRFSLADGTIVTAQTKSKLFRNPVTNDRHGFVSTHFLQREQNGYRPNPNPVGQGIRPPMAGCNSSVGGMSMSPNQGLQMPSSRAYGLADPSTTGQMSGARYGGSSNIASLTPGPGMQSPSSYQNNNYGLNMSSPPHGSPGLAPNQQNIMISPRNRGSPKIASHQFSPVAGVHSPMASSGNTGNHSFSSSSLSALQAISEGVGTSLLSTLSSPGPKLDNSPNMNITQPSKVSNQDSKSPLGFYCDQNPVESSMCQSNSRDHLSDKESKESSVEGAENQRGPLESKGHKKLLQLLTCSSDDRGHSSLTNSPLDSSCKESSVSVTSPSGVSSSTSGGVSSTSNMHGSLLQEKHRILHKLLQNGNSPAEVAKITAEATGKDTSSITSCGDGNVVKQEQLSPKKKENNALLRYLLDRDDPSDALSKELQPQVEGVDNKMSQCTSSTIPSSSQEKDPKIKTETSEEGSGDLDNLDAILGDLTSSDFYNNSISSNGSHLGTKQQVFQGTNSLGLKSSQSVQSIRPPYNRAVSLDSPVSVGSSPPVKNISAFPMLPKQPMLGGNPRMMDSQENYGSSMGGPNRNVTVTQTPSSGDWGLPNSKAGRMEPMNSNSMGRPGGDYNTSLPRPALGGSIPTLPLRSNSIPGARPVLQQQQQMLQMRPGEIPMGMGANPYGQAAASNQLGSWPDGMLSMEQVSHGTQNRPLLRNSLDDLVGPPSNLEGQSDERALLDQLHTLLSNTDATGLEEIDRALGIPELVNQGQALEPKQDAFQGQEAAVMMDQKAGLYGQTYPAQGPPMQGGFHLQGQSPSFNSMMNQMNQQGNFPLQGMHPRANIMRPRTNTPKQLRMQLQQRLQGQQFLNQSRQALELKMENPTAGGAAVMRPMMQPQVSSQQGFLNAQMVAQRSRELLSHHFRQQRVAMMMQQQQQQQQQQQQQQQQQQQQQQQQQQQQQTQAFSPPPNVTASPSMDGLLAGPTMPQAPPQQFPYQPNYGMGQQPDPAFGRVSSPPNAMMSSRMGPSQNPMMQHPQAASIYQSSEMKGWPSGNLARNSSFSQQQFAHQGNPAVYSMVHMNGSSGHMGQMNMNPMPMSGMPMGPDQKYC
# Sequence of Serine/threonine-protein phosphatase PP1-alpha catalytic subunit (P62136 whole entry): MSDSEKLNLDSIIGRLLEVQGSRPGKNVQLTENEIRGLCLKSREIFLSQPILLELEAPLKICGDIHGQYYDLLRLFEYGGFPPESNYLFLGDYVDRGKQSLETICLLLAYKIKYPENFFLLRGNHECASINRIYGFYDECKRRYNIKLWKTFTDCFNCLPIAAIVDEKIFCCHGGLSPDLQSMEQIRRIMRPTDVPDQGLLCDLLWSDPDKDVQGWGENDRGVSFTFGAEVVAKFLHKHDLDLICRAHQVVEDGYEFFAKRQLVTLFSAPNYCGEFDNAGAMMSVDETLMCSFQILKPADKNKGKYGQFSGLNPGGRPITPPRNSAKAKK
smiles,measurement,setting,value
c1ccc(CCNc2nc(-c3ccccn3)nc3ccccc23)cc1,EC50,[1],51.1 µM (inconclusive)
same,IC50,[2],49.3 µM (not active)
same,EC50,[3],0.916 µM (active)
same,AC50,[4],125 µM (active)
same,IC50,[5],1.77 µM (active)
same,EC50,[6],15.9 µM (inconclusive)
same,IC50,[7],6.27 µM (active)
same,EC50,[8],2.33 µM (active)
same,EC50,[9],28.9 µM (active)
same,IC50,[10],1.96 µM (active)
same,IC50,[11],1.21 µM (active)
same,AC50,[12],1.63 µM (active)
same,AC50,[13],1.24 µM (active)
same,EC50,[14],3.18 µM (active)
CCOc1ccccc1NC(=O)C(NCC1(N2CCCCC2)CCCCC1)c1ccccc1 (stereo not drawn),IC50,[15],139 µM (active)
same,IC50,[16],> 14.6 µM (not active)
same,IC50,[17],> 14.6 µM (not active)
Cc1ccn2cc(C(=O)Nc3nnc(C)s3)nc2c1,EC50,[18],> 100 µM (not active)
same,EC50,[19],> 50 µM (active)
COc1cccc2oc(-c3ccc(O)cc3)cc(=O)c12,AC50,[20],15.8 µM (inconclusive)
Cc1cc(NC(=O)c2cccs2)no1,IC50,[21],> 100 µM (inactive)
same,IC50,[22],> 100 µM (inactive)
same,IC50,[23],50.1 µM (active)
same,IC50,[24],> 100 µM (not active)
O=C(Nc1ccc(Cl)c(Cl)c1)Nc1nccs1,EC50,[1],3.25 µM (inconclusive)
same,EC50,[3],8.23 µM (active)
same,EC50,[6],3.33 µM (active)
same,EC50,[8],15.4 µM (active)
same,EC50,[9],46.2 µM (active)
same,EC50,[25],> 49.7 µM (not active)
same,EC50,[26],> 49.7 µM (not active)
same,EC50,[14],3.87 µM (active)
same,EC50,[27],> 150 µM (not active)
CCN(CC)CCCN1C(=O)C(O)=C(C(=O)c2cc3ccccc3o2)C1c1ccccn1 (stereo not drawn),EC50,[28],> 79.4 µM (inactive)
same,EC50,[29],> 79.4 µM (not active)
same,IC50,[30],4.13 µM (active)
same,IC50,[31],> 39.8 µM (not active)
same,EC50,[32],35.7 µM (not active)
